In ChEMBL document CHEMBL4616673 (J Med Chem, 2020):
pIC50, pKi: −log10 of the molar value. One block for each compound: values may come before it.

Assays:
[1] = biological target: T1, Dihydroorotate dehydrogenase (quinone), mitochondrial (Homo sapiens, UniProt Q02127); experiment: Inhibition of human DHODH using dihydroorotate as substrate and CoQ10 as co-substrate preincubated for 30 mins followed by substrate addition by DCIP coupled microplate reader assay
[2] = Competitive inhibition of Plasmodium falciparum DHODH
[3] = Solubility of the compound in PBS; type: physicochemical
A-375 = experiment: Antiproliferative activity against human A375 cells assessed as reduction in cell viability measured after 48 hrs by MTT assay; type: functional, cell-based; conditions: Homo sapiens, A-375, 48 h
HCT-116 = experiment: Antiproliferative activity against human HCT116 cells assessed as reduction in cell viability measured after 48 hrs by MTT assay; type: functional, cell-based; conditions: Homo sapiens, HCT-116, 48 h
HeLa = experiment: Antiproliferative activity against human HeLa cells assessed as reduction in cell viability measured after 48 hrs by MTT assay; type: functional, cell-based; conditions: Homo sapiens, HeLa, 48 h
A549 = experiment: Antiproliferative activity against human A549 cells assessed as reduction in cell viability measured after 48 hrs by MTT assay; type: functional, cell-based; conditions: Homo sapiens, A549, 48 h
MCF7 = experiment: Antiproliferative activity against human MCF7 cells assessed as reduction in cell viability measured after 48 hrs by MTT assay; type: functional, cell-based; conditions: Homo sapiens, MCF7, 48 h
Raji = experiment: Antiproliferative activity against human Raji cells assessed as reduction in cell viability measured after 48 hrs by MTT assay; type: functional, cell-based; conditions: Homo sapiens, Raji, 48 h
K562 = experiment: Antiproliferative activity against human K562 cells assessed as reduction in cell viability measured after 48 hrs by MTT assay; type: functional, cell-based; conditions: Homo sapiens, K562, 48 h
NAMALVA = experiment: Antiproliferative activity against human NAMALWA cells assessed as reduction in cell viability measured after 48 hrs by MTT assay; type: functional, cell-based; conditions: Homo sapiens, NAMALVA, 48 h
[4] = biological target: T1, Dihydroorotate dehydrogenase (quinone), mitochondrial; experiment: Inhibition of recombinant human DHODH expressed in baculovirus infected insect cells using dihydroorotate as substrate and decylubiquinone as co-substrate by 2,6-dichlorophenol-indophenol-coupled spectrophotometric analysis

T1 sequence (Q02127 whole entry): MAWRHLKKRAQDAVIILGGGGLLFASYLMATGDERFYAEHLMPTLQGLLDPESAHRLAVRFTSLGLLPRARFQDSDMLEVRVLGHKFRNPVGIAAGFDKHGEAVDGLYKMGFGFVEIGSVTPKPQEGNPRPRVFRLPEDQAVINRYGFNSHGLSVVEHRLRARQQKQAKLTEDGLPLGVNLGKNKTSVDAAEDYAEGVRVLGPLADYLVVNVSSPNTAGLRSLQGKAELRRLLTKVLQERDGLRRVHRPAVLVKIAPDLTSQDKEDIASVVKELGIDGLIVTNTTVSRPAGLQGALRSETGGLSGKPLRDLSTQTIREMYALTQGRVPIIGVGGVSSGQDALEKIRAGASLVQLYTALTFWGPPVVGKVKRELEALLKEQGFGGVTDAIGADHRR

- pIC50 [1]: < 6.00
Structure (SMILES): O=C1c2ccccc2C(=O)c2c1nnn2-c1ccc2ccccc2c1

- pIC50 [1]: 7.00
Structure (SMILES): COc1cccc(-c2ccc(-n3nnc4c3C(=O)c3ccccc3C4=O)cc2)c1

- pIC50 [1]: 6.37
Structure (SMILES): O=C1c2ccccc2C(=O)c2c1nnn2-c1ccc(-c2cccnc2)cc1

- pIC50 [1]: < 6.00
Structure (SMILES): O=C1c2ccccc2C(=O)c2c1nnn2-c1ccccc1C(F)(F)F

- pIC50 [1]: < 6.00
Structure (SMILES): O=C1c2ccccc2C(=O)c2c1nnn2-c1ccc(-c2cncnc2)cc1

- pIC50 [1]: < 6.00
Structure (SMILES): N#Cc1cccc(-n2nnc3c2C(=O)c2ccccc2C3=O)c1

- pIC50 [1]: 8.80
- solubility [3]: < 10 µg/mL
- pIC50 (A-375): 6.74
- pIC50 (HCT-116): 5.95
- pIC50 (HeLa): < 5.00
- pIC50 (A549): < 5.00
- pIC50 (MCF7): < 5.00
- pIC50 (Raji): 5.91
- pIC50 (K562): < 5.00
Structure (SMILES): COCc1cccc(-c2c(F)cc(-n3nnc4c3C(=O)c3ccccc3C4=O)cc2F)c1
- pIC50 (NAMALVA): < 5.00

- pIC50 [1]: 6.26
Structure (SMILES): COC(=O)c1cccc(-c2ccc(-n3nnc4c3C(=O)c3ccccc3C4=O)cc2)c1

- pIC50 [1]: 7.68
- pIC50 (A-375): < 5.00
- pIC50 (HCT-116): < 5.00
- pIC50 (HeLa): < 5.00
- pIC50 (A549): < 5.00
- pIC50 (MCF7): < 5.00
- pIC50 (Raji): 5.04
- pIC50 (K562): 5.15
Structure (SMILES): O=C1c2ccccc2C(=O)c2c1nnn2-c1ccc(-c2cccc(O)c2)cc1
- pIC50 (NAMALVA): < 5.00

- pIC50 [1]: 6.82
Structure (SMILES): O=C1c2ccc(F)cc2C(=O)c2c1nnn2-c1cc(F)c(-c2ccccc2F)c(F)c1

- pIC50 [1]: 7.25
Structure (SMILES): O=C1c2ccccc2C(=O)c2c1nnn2-c1ccc(-c2cccc(F)c2)cc1

- pIC50 [1]: < 6.00
Structure (SMILES): O=C1c2ccccc2C(=O)c2c1nnn2-c1nc2ccccc2[nH]1

- pIC50 [1]: < 6.00
Structure (SMILES): O=C1CCCc2c1nnn2-c1cc(F)c(-c2ccccc2F)c(F)c1

- pIC50 [1]: < 6.00
Structure (SMILES): O=C1c2ccccc2C(=O)c2c1nnn2-c1ccc2c(c1)OCO2

- pIC50 [1]: < 6.00
Structure (SMILES): O=C1c2ccccc2C(=O)c2c1nnn2-c1ccc(-c2ccncc2)cc1

- pIC50 [1]: 8.57
- solubility [3]: < 10 µg/mL
- pIC50 (A-375): 6.72
- pIC50 (HCT-116): 6.26
- pIC50 (HeLa): < 5.00
- pIC50 (A549): < 5.00
- pIC50 (MCF7): < 5.00
- pIC50 (Raji): 5.82
- pIC50 (K562): < 5.00
Structure (SMILES): O=C1c2ccccc2C(=O)c2c1nnn2-c1cc(F)c(-c2cccc(F)c2)c(F)c1
- pIC50 (NAMALVA): < 5.00

The next lines start with the compound.

Structure (SMILES): O=C1c2ccccc2C(=O)c2c1nnn2-c1ccnc(Cl)c1
- pIC50 [1]: < 6.00

Structure (SMILES): O=C1c2ccccc2C(=O)c2c1nnn2-c1ccc(Cl)nc1
- pIC50 [1]: < 6.00

Structure (SMILES): Cc1ccc(-n2nnc3c2C(=O)c2ccccc2C3=O)cc1C(F)(F)F
- pIC50 [1]: < 6.00

Structure (SMILES): COc1ccc2c(c1)C(=O)c1nnn(-c3cc(F)c(-c4ccccc4F)c(F)c3)c1C2=O
- pIC50 [1]: < 6.00

Structure (SMILES): O=C1C(O)=C([C@H]2CC[C@H](c3ccc(Cl)cc3)CC2)C(=O)c2ccccc21 [ATOVAQUONE]
- pKi [2]: 4.57

Structure (SMILES): Nc1cccc(-c2ccc(-n3nnc4c3C(=O)c3ccccc3C4=O)cc2)c1
- pIC50 [1]: 8.51
- solubility [3]: < 10 µg/mL
- pIC50 (A-375): 6.60
- pIC50 (HCT-116): 6.06
- pIC50 (HeLa): < 5.00
- pIC50 (A549): < 5.00
- pIC50 (MCF7): < 5.00
- pIC50 (Raji): 5.87
- pIC50 (K562): < 5.00
- pIC50 (NAMALVA): < 5.00

Structure (SMILES): CC(C)c1ccc(-c2c(F)cc(-n3nnc4c3C(=O)c3ccccc3C4=O)cc2F)cc1
- pIC50 [1]: 7.12

Structure (SMILES): O=C(c1ccccc1)c1cn(-c2cc(F)c(-c3ccccc3F)c(F)c2)nn1
- pIC50 [1]: < 6.00

Structure (SMILES): O=C1c2ccccc2C(=O)c2c1nnn2-c1ccc(-c2ccccc2O)cc1
- pIC50 [1]: 6.64

Structure (SMILES): O=C1C(O)=C(CC=C(Cl)Cl)C(=O)c2ccccc21
- pIC50 [4]: 7.17

Structure (SMILES): Nc1ccc(-c2ccc(-n3nnc4c3C(=O)c3ccccc3C4=O)cc2)cc1
- pIC50 [1]: 7.60
- pIC50 (A-375): 5.72
- pIC50 (HCT-116): < 5.00
- pIC50 (HeLa): < 5.00
- pIC50 (A549): < 5.00
- pIC50 (MCF7): < 5.00
- pIC50 (Raji): < 5.00
- pIC50 (K562): 6.62
- pIC50 (NAMALVA): < 5.00

Structure (SMILES): Cc1cc(-c2ccc(-n3nnc4c3C(=O)c3ccccc3C4=O)cc2)ccn1
- pIC50 [1]: < 6.00

Structure (SMILES): Nc1ccccc1-c1ccc(-n2nnc3c2C(=O)c2ccccc2C3=O)cc1
- pIC50 [1]: 7.70
- pIC50 (A-375): 5.71
- pIC50 (HCT-116): 5.64
- pIC50 (HeLa): < 5.00
- pIC50 (A549): < 5.00
- pIC50 (MCF7): < 5.00
- pIC50 (Raji): 5.42
- pIC50 (K562): 5.67
- pIC50 (NAMALVA): 5.30
